Experimental data published in ChEMBL document CHEMBL6134853, “Design, Synthesis, and Biological Evaluation of Pyrrolo[1,2-a]quinoxalin-4(5H)-one Derivatives as Potent and Orally Available Noncovalent Bruton's Tyrosine Kinase (BTK) Inhibitors” (J Med Chem, 2025).
pIC50: −log10 of the molar value. Calls of active or inactive are those of the source. The rule behind the calls is not given here.

Experiments:
U-937 [1] = test: Antitumor activity against human U-937 cells xenografted in BALB/c mouse assessed as tumor growth inhibition at 100 mg/kg, po administered once a day for 14 days; format: functional; conditions: U-937, 336 h, time 14 day, read-out: TGI
Ramos = test: Antiproliferative activity against human Ramos cells expressing BTK assessed as inhibition of cell proliferation incubated for 48 hrs by CCK-8 assay; format: functional, cell-based
[2] = Toxicity in BALB/c mouse xenografted with human U-937 cells assessed as parenchymal injury in kidney at 50 to 100 mg/kg, po administered once a day for 14 days by H and E staining based analysis; format: organism-based; conditions: in vivo, 336 h, dose 50-100 mg/kg, time 14 day
[3] = target: T1, 1-phosphatidylinositol 4,5-bisphosphate phosphodiesterase gamma-2 (Homo sapiens) (UniProt P16885); test: Inhibition of PLCgamma2 phosphorylation at Y1217 residue in anti-IgM induced human Ramos cells preincubated with compound for 4 hrs followed by anti-IgM induction and measured after 15 mins by Western blot analysis; format: cell-based; conditions: dose <= 1.0 µM, time […]
T1 sequence (whole entry): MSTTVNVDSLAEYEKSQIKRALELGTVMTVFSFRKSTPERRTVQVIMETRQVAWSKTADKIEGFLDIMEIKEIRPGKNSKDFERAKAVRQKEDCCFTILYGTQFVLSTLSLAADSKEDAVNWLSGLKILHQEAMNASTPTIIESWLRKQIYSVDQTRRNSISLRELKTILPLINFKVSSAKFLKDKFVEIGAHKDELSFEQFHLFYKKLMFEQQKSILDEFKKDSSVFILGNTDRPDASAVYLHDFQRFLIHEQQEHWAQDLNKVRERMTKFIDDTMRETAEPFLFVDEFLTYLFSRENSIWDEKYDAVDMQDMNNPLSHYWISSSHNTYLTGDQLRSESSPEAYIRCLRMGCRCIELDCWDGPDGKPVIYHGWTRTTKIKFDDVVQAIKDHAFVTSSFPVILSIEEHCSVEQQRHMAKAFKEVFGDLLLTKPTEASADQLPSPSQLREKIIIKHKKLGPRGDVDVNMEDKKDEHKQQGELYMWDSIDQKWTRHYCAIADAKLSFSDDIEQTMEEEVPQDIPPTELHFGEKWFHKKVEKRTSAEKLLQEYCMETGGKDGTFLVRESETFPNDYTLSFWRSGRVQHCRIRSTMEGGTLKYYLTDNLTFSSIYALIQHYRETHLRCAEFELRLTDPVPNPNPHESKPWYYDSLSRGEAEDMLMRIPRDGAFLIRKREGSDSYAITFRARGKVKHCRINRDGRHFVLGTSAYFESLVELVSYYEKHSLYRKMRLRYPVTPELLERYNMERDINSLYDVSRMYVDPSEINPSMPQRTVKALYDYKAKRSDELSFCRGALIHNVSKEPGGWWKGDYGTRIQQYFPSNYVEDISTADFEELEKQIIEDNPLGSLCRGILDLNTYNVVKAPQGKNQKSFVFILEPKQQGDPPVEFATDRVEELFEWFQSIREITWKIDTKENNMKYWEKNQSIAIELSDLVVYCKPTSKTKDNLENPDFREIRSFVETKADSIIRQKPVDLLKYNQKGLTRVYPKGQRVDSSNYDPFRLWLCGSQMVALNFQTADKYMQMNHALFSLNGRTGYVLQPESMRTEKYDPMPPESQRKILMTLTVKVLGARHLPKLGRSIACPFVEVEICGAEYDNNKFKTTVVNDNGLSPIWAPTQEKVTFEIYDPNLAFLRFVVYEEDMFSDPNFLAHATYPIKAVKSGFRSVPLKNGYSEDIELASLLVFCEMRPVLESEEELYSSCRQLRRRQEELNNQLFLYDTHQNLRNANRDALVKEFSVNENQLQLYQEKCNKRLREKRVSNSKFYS

[4] = Toxicity in BALB/c mouse xenografted with human U-937 cells assessed as parenchymal injury in heart at 50 to 100 mg/kg, po administered once a day for 14 days by H and E staining based analysis; format: organism-based; conditions: in vivo, 336 h, dose 50-100 mg/kg, time 14 day
[5] = Toxicity in BALB/c mouse xenografted with human U-937 cells assessed as inflammatory infiltration in liver at 50 to 100 mg/kg, po administered once a day for 14 days by H and E staining based analysis; format: organism-based; conditions: in vivo, 336 h, dose 50-100 mg/kg, time 14 day
[6] = target: Phosphatidylinositol 4-phosphate 5-kinase type-1 alpha (Homo sapiens) (UniProt Q99755); test: Inhibition of PIP5K1A (unknown origin) at 100 nM relative to control
Chain of Phosphatidylinositol 4-phosphate 5-kinase type-1 alpha (Homo sapiens) (Q99755 whole entry): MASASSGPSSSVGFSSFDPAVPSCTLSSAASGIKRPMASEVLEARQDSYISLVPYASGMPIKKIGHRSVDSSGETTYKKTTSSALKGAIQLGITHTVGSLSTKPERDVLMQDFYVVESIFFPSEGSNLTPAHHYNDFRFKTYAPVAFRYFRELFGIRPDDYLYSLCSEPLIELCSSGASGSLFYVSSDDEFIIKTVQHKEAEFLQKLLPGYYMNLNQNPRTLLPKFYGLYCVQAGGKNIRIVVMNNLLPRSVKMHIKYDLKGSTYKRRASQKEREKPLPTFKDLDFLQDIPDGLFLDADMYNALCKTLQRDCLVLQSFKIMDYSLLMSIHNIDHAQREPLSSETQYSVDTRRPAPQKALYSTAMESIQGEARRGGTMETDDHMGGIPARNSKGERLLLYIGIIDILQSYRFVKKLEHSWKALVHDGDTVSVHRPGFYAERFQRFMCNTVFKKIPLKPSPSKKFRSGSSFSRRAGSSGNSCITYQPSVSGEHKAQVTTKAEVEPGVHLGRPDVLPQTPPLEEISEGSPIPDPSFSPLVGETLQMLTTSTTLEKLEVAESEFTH

[7] = Toxicity in BALB/c mouse xenografted with human U-937 cells assessed as inflammatory infiltration in heart at 50 to 100 mg/kg, po administered once a day for 14 days by H and E staining based analysis; format: organism-based; conditions: in vivo, 336 h, dose 50-100 mg/kg, time 14 day
U-937 [8] = test: Antitumor activity against human U-937 cells xenografted in BALB/c mouse assessed as reduction in Ki67 expression in tumor at 50 mg/kg, po administered once a day for 14 days by immunohistochemical analysis; format: functional, organism-based; conditions: time 14.0 day
[9] = AUC (0 to t) in male Sprague-Dawley rat at 10 mg/kg, po measured up to 24 hrs by LC-MS/MS analysis; format: ADME, organism-based; conditions: in vivo

CC(C)(O)c1ccc2c(c1)[nH]c(=O)c1ccc(-c3cccc(-n4c(=O)[nH]c5c(F)cccc5c4=O)c3F)n12
inhibition in vivo at 100 mg/kg (U-937 [1]): 74.9%
pIC50 (Ramos): 5.10
Activity [2]: Non-toxic
inhibition [3]: Dose-dependent-effect
Activity [4]: Non-toxic
Activity [5]: Non-toxic
inhibition [6]: Active
Activity [7]: Non-toxic
Activity (U-937 [8]): Active
AUC(0-t) at 24 h [9]: 161 ng·h/mL
